Assays:
Type in all cases: in vivo
[1] = tested on: Housefly [Musca domestica]; assay: Housefly contact mortality in dishes (HF), 48 hours; details: μg of test compound per 25 female flies
Outline: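 LC50, as μg compound per 25 female flies, comes from dosage-mortality curves with doses from 100 μg downward. Residues were made by evaporating acetone plus 0.01% peanut oil in dishes, onto which 1-2-day-old females were caged; deaths were counted after 48 hours.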

[2] = tested on: Black Bean Aphid [Aphis fabae (Scop.)]; assay: Black bean aphid spray test on nasturtium (BBA), 48 hours; details: percent of test compound in sprayed solution
Outline: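 LC50, given as percent test compound in the sprayed liquid, was calculated from dosage-mortality curves using concentrations from 0.05% downward. Sprays in 50:50 acetone-water went to runoff on ~5 cm nasturtiums carrying 25-50 aphids of mixed ages, one day after infestation. Deaths were counted 48 h later under greenhouse conditions.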

[3] = tested on: Tobacco Budworm [Heliothis virescens (Fabricius)] larvae; assay: Tobacco budworm larvae, contact (TBW-C), 5 days; details: percent in solution, second-instar larvae
Outline: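 Cotton cotyledons dipped 2–3 s in compound in 50-50 acetone-water, dried, then infested with 5 second-instar larvae and held 5 days at high humidity. Mortality scored; LC50 from dosage-mortality curves, expressed as percent compound in solution, concentrations from 0.1% downward.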

[4] = tested on: Tobacco Budworm [Heliothis virescens (Fabricius)] eggs; assay: Tobacco budworm eggs (TBW-E); details: percent in solution; 2-day old eggs
Outline: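 Paper-towel patches of 2-day-old eggs dipped in acetone solutions of compound (0.1% downward), held on larval rearing medium at 78° F. Mortality scored once all control eggs had hatched and larvae were feeding; LC50 from dosage-mortality curves, expressed as percent compound in solution.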

[5] = tested on: Beet Armyworm (Spodoptera exigua); assay: Beet armyworm leaf dip (BAW), 5 days; details: percent in solution; second-instar larvae; five days
Protocol: The compounds in Tables 1 and 2 above were tested for insecticidal activity using the following testing procedures. LC50 values, based on the results of these tests and calculated according to dosage-mortality curves, are expressed in Table 3.
Beet Armyworm (Spodoptera exigua):
Test compounds were diluted in a 50-50 acetone-water solution. Young leaves of sugar beets (Beta vulgaris) were immersed in the test solutions for 2-3 seconds and placed on a wire screen to dry. The dried leaves were placed in petri dishes containing a moistened filter paper and infested with five second-instar beet armyworm larvae. The dishes were placed in a high humidity chamber. Mortality of the larvae was recorded five days later. Test concentrations ranged from 0.1% downward. The LC-50 values are expressed below in Table 3 under the heading "BAW" in terms of percent of the test compound in solution.

[6] = tested on: Cabbage Looper [Trichoplusia ni (Hubner)]; assay: Cabbage looper leaf dip (CL), 3-5 days; details: percent in solution, second-instar larvae
Outline: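 Squash cotyledons dipped 2-3 s in compound in 50-50 acetone-water, dried, then infested with 5 second-instar larvae and held at high humidity. Mortality scored after 3-5 days at concentrations from 0.1% downward. LC50 from dosage-mortality curves, expressed as percent compound in solution.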

[7] = tested on: Aster Leafhopper [Macrosteles fascifrens (Stal)]; assay: Aster leafhopper on dipped oat seedlings (LH), 48 hours; details: percent in solution, adults/nymphs
Outline: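 LC50 values, given as percent of test compound in the dip solution, were derived from dosage-mortality curves over concentrations from 0.05% downward. Mortality was counted 48 hours after ten leafhopper adults/nymphs were enclosed on treated seedlings. The seedlings were oats, about 10 cm tall, briefly dipped in 50-50 acetone-water.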

[8] = tested on: Maize weevil [Sitophilus zeamais (Motschulsky)]; assay: Maize weevil on dipped corn seeds (MW), 48 hours; details: percent in solution, adult weevils
Outline: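 LC50, given as percent of compound in dipping solution, comes from dosage-mortality curves over concentrations descending from 0.01%. Four corn seeds soaked 2-3 s in 50:50 acetone:water solution were dried and held with 10 adult weevils, about 25° C, mortality read after 48 h.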

CC(C)C(=Nc1ccc2c(c1)OCO2)OCc1cccc(Oc2ccc(F)cc2)c1 [Compound 176]
LC50 HF [1]: 1.8 µg
LC50 BBA [2]: 0.0006%
LC50 TBW C (contact) [3]: 0.002%
LC50 TBW E (eggs) [4]: 0.05%
LC50 BAW [5]: 0.0035%
LC50 CL [6]: 0.0005%
LC50 LH [7]: > 0.05%
LC50 MW [8]: 0.009%

Clc1cccc(N=C(OCc2cccc(Oc3ccccc3)c2)C(Cl)Cl)c1 [Compound 1]
LC50 HF [1]: 4.8 µg
LC50 BBA [2]: 0.0003%
LC50 TBW C (contact) [3]: 0.06%
LC50 TBW E (eggs) [4]: 0.05%
LC50 BAW [5]: 0.009%
LC50 CL [6]: 0.005%
LC50 LH [7]: > 0.05%
LC50 MW [8]: > 0.01%

CC(C)C(=Nc1cccc(I)c1)OCc1ccc(F)c(Oc2ccc(F)cc2)c1 [Compound 279]
LC50 HF [1]: 4 µg
LC50 BBA [2]: 0.0005%
LC50 TBW C (contact) [3]: 0.007%
LC50 TBW E (eggs) [4]: 0.016%
LC50 BAW [5]: 0.0025%
LC50 CL [6]: 0.00008%
LC50 LH [7]: 0.0003%
LC50 MW [8]: > 0.01%

CC(C)C(=Nc1cccc(F)c1)OCc1cccc(Oc2ccccc2)c1 [Compound 47]
LC50 HF [1]: 10 µg
LC50 BBA [2]: 0.001%
LC50 TBW C (contact) [3]: 0.002%
LC50 TBW E (eggs) [4]: 0.06%
LC50 BAW [5]: 0.002%
LC50 CL [6]: 0.002%
LC50 LH [7]: 0.0003%

Clc1ccc(N=C(OCc2cccc(Oc3ccccc3)c2)C(Cl)Cl)cc1 [Compound 29]
LC50 HF [1]: 5 µg
LC50 BBA [2]: 0.001%
LC50 TBW C (contact) [3]: 0.001%
LC50 TBW E (eggs) [4]: 0.01%
LC50 BAW [5]: 0.003%
LC50 CL [6]: 0.002%
LC50 LH [7]: 0.003%
LC50 MW [8]: > 0.01%

CC(C)C(=Nc1ccc(F)cc1F)OCc1cccc(Oc2ccccc2)c1 [Compound 52]
LC50 HF [1]: 8 µg
LC50 BBA [2]: 0.001%
LC50 TBW C (contact) [3]: 0.004%
LC50 TBW E (eggs) [4]: > 0.05%
LC50 BAW [5]: 0.01%
LC50 CL [6]: 0.0025%
LC50 LH [7]: 0.001%

CC(C)C(=Nc1cccc(C(F)(F)F)c1)OCc1ccc(F)c(Oc2ccc(F)cc2)c1 [Compound 268]
LC50 HF [1]: 4 µg
LC50 BBA [2]: > 0.05%
LC50 TBW C (contact) [3]: 0.0005%
LC50 TBW E (eggs) [4]: 0.023%
LC50 BAW [5]: 0.001%
LC50 CL [6]: 0.000025%
LC50 LH [7]: 0.0005%
LC50 MW [8]: > 0.01%

CC(C)C(=Nc1cccc(C(F)(F)F)c1)OCc1ccc(F)c(Oc2ccccc2)c1 [Compound 80]
LC50 HF [1]: 4.5 µg
LC50 BBA [2]: 0.00025%
LC50 TBW C (contact) [3]: 0.00075%
LC50 TBW E (eggs) [4]: 0.005%
LC50 BAW [5]: 0.0018%
LC50 CL [6]: 0.0003%
LC50 LH [7]: 0.0001%

CC(C)C(=Nc1ccc(F)c(F)c1)OCc1cccc(Oc2ccccc2)c1 [Compound 54]
LC50 HF [1]: 3.5 µg
LC50 BBA [2]: 0.001%
LC50 TBW C (contact) [3]: 0.001%
LC50 TBW E (eggs) [4]: 0.017%
LC50 BAW [5]: 0.004%
LC50 CL [6]: 0.0003%
LC50 LH [7]: 0.00015%

Clc1ccc(N=C(OCc2cccc(Oc3ccccc3)c2)C(Cl)Cl)c(Cl)c1 [Compound 4]
LC50 HF [1]: 100 µg
LC50 BBA [2]: > 0.05%
LC50 TBW C (contact) [3]: 0.05%
LC50 TBW E (eggs) [4]: > 0.1%
LC50 BAW [5]: 0.04%
LC50 CL [6]: 0.007%
LC50 LH [7]: > 0.05%

CC(C)C(=Nc1ccc(Cl)cc1)OCc1cccc(Oc2ccccc2)c1 [Compound 2]
LC50 HF [1]: 4.5 µg
LC50 BBA [2]: 0.0003%
LC50 TBW C (contact) [3]: 0.0009%
LC50 TBW E (eggs) [4]: 0.04%
LC50 BAW [5]: 0.01%
LC50 CL [6]: 0.006%
LC50 LH [7]: 0.0003%

CC(C)C(=Nc1ccc(F)c(Cl)c1)OCc1cc(Oc2ccc(F)cc2)c(F)cc1F [Compound 343]
LC50 HF [1]: 40 µg
LC50 BBA [2]: 0.002%
LC50 TBW C (contact) [3]: 0.00025%
LC50 TBW E (eggs) [4]: > 0.1%
LC50 BAW [5]: > 0.1%
LC50 CL [6]: 0.00027%
LC50 MW [8]: > 0.01%

CC(C)C(=Nc1ccc(Cl)c(C(F)(F)F)c1)OCc1cccc(Oc2ccccc2)c1 [Compound 71]
LC50 HF [1]: 50 µg
LC50 BBA [2]: 0.001%
LC50 TBW C (contact) [3]: 0.0008%
LC50 TBW E (eggs) [4]: 0.065%
LC50 BAW [5]: 0.0004%
LC50 CL [6]: 0.0006%
LC50 LH [7]: 0.002%

CC(C)C(=Nc1ccc(Br)cc1)OCc1ccc(F)c(Oc2ccc(F)cc2)c1 [Compound 333]
LC50 HF [1]: 15 µg
LC50 BBA [2]: 0.001%
LC50 TBW C (contact) [3]: 0.00075%
LC50 TBW E (eggs) [4]: 0.025%
LC50 BAW [5]: > 0.1%
LC50 CL [6]: 0.00024%
LC50 MW [8]: > 0.01%

CC(C)C(=Nc1ccc(Br)c(F)c1)OCc1ccc(F)c(Oc2ccc(F)cc2)c1 [Compound 282]
LC50 HF [1]: 16 µg
LC50 TBW C (contact) [3]: 0.0007%
LC50 TBW E (eggs) [4]: 0.02%
LC50 BAW [5]: 0.0025%
LC50 CL [6]: 0.00007%
LC50 MW [8]: 0.008%

CC(C)C(=Nc1ccc(I)cc1)OCc1ccc(F)c(Oc2ccc(F)cc2)c1 [Compound 335]
LC50 HF [1]: 34 µg
LC50 BBA [2]: 0.0008%
LC50 TBW C (contact) [3]: 0.00025%
LC50 TBW E (eggs) [4]: 0.05%
LC50 BAW [5]: > 0.1%
LC50 CL [6]: 0.00027%
LC50 MW [8]: > 0.01%

CC(C)C(=Nc1ccc2c(c1)OC(F)(F)O2)OCc1ccc(F)c(Oc2ccc(F)cc2)c1 [Compound 284]
LC50 HF [1]: 39 µg
LC50 BBA [2]: 0.0003%
LC50 TBW C (contact) [3]: 0.0002%
LC50 BAW [5]: 0.0025%
LC50 CL [6]: 0.00005%
LC50 LH [7]: 0.0003%
LC50 MW [8]: 0.0075%
